Data published in ChEMBL document CHEMBL1144768 (J Med Chem, 2008).

What was measured:
[1] = Dissociation constant, pKa of the compound; assay type: physicochemical
Carbonic anhydrase 2 [2] = target: T1, Carbonic anhydrase 2 (Homo sapiens, UniProt P00918)
Description: Inhibition of human carbonic anhydrase 2 by 4-NPA hydrolysis assay

Carbonic anhydrase 2 [3] = target: T1, Carbonic anhydrase 2; remark: listed apart in the source
Description: Binding affinity to human carbonic anhydrase 2 in presence of 10 mM HEPES and 100 uM Na2SO4 at pH 7.5 by ThermoFluor method

Carbonic anhydrase 2 [4] = target: T1, Carbonic anhydrase 2; remark: listed apart in the source
Description: Binding affinity to human carbonic anhydrase 2 in presence of 10 mM HEPES without Na+ at pH 7.5 by ThermoFluor method

Carbonic anhydrase 2 [5] = target: T1, Carbonic anhydrase 2; remark: listed apart in the source
Description: Binding affinity to human carbonic anhydrase 2 in presence of 10 mM PIPES and 100 uM Na2SO4 at pH 7.0 by ThermoFluor method

Carbonic anhydrase 2 [6] = target: T1, Carbonic anhydrase 2; remark: listed apart in the source
Description: Binding affinity to human carbonic anhydrase 2 in presence of 10 mM PIPES and 200 uM NaCl at pH 7.0 by ThermoFluor method

Carbonic anhydrase 2 [7] = target: T1, Carbonic anhydrase 2; remark: listed apart in the source
Description: Binding affinity to human carbonic anhydrase 2 in presence of 10 mM PIPES without Na+ at pH 7.0 by ThermoFluor method

Compound | pKa [1] | Ki (Carbonic anhydrase 2 [2]) | Kd (Carbonic anhydrase 2 [3]) | Kd (Carbonic anhydrase 2 [4]) | Kd (Carbonic anhydrase 2 [5]) | Kd (Carbonic anhydrase 2 [6]) | Kd (Carbonic anhydrase 2 [7])
CC1(C)O[C@@H]2[C@@H](CO[C@@]3(COS(N)(=O)=O)OC(C)(C)O[C@@H]23)O1 [TOPIRAMATE] | 8.7 |  |  |  |  |  | 
CC1(C)O[C@@H]2[C@@H](CO[C@@]3(CNS(N)(=O)=O)OC(C)(C)O[C@@H]23)O1 | 10.7 |  |  |  |  |  | 
CC1(C)O[C@H]2[C@@H]3OCO[C@@H]3CO[C@@]2(CNS(N)(=O)=O)O1 |  | 300 µM | > 57 µM | > 57 µM | > 57 µM | > 57 µM | > 57 µM
